Measured values taken from patent publication US20140066365A1, “USE OF CALIXARENES ASSOCIATED WITH AN ANTIBIOTIC IN THE TREATMENT OF BACTERIAL INFECTIONS” (priority 2011, published 2014).
In brackets after ≈: the same amount, converted by molar mass. Like-named read-outs stand apart in the source and are kept apart here.

Tests used:
[1] = system: ESBL-producing strain of Escherichia coli, having an associated resistance to the aminoglycosides (EcR3); assay: MIC of the compounds used alone, microdilution in a liquid medium (CLSI); format: cell-based; details: Escherichia coli, antibiotic alone (second value of cell), read-out: Initial MICs
Text: (§1) The MICs of the antibiotics were previously defined for each strain, by the method of microdilution in a liquid medium (CLSI (Clinical and Laboratory Standards Institute), 2003).

[2] = system: Escherichia coli strain ATCC 25922 (wild type); assay: as above; format: cell-based; details: Escherichia coli
Text: as §1

[3] = system: cephalosporinase-hyperproducing strain of Escherichia coli (EcR2); assay: as above; format: cell-based; details: Escherichia coli, antibiotic alone (second value of cell), read-out: Initial MICs
Text: as §1

[4] = system: penicillinase-producing strain of Escherichia coli without associated resistance (EcR1); assay: as above; format: cell-based; details: Escherichia coli, antibiotic alone (second value of cell), read-out: Initial MICs
Text: as §1

[5] = system: EcR1: Penicillinase-Producing Escherichia coli without Associated Resistance; assay: Antibiogram, MIC by the VITEK 2 system; format: cell-based; details: for CA-SFM Interpretation: EcR1, MIC against Cc CA-SFM 2011; for CLSI Interpretation: EcR1, MIC against Cc CLSI 2011; for EUCAST Interpretation: EcR1, MIC against Cc EUCAST 2011; for Results: EcR1, interpretation of the MIC, Table A1; for MIC: Escherichia coli
Procedure: (§2) 5.1 EcR1: Penicillinase-Producing Escherichia coli without Associated Resistance The bacterial and antibiogramidentification is carried out by the VITEK 2 system (bioMérieux) and by the disk diffusion technique.

[6] = system: EcR1: Penicillinase-Producing Escherichia coli without Associated Resistance; assay: Antibiogram by the disk diffusion technique; format: cell-based; details: for Diameter: EcR1, disk diffusion; for Diameter / Results: Table A1; for Results: EcR1, interpretation of the diameter against Dmin Dmax
Procedure: as §2

[7] = system: EcR2: Cephalosporinase-Hyperproducing Strain of Escherichia coli; assay: Antibiogram, MIC by the VITEK 1 system; format: cell-based; details: for MIC: Escherichia coli, read-out: MIC
Procedure: (§3) The bacterial and antibiogramidentification is carried out by the VITEK 1 system (bioMérieux) and by the disk diffusion technique

[8] = system: EcR3: ESBL-Producing Escherichia coli; assay: Antibiogram by the disk diffusion technique; format: cell-based; details: for CA-SFM Interpretation: Cd CA-SFM 2011; for CLSI Interpretation: Cd CLSI 2011; for EUCAST Interpretation: Cd EUCAST 2011; for Diameter: Table C1; for Results: Table C1, against Dmin Dmax; for diameter in mm: Table C2
Procedure: The bacterial and antibiogramidentification is carried out by the VITEK 2 system (bioMerieux) and by the disk diffusion technique

[9] = system: EcR2: Cephalosporinase-Hyperproducing Strain of Escherichia coli; assay: Antibiogram by the disk diffusion technique; format: cell-based
Procedure: as §3

[10] = system: Pseudomonas aeruginosa strain ATCC 27853 (wild type); assay: MIC of the compounds used alone, microdilution in a liquid medium (CLSI); format: cell-based; details: Pseudomonas aeruginosa
Text: as §1

[11] = system: Staphylococcus aureus strain ATCC 29213 (wild type); assay: as above; format: cell-based; details: Staphylococcus aureus
Text: as §1

[12] = system: SaR1: Meticillin-Resistant Staphylococcus aureus without Associated Resistance; assay: Antibiogram, MIC by the VITEK 2 system; format: cell-based; details: SaR1; for MIC mg/L: Table D2; for MIC: Staphylococcus aureus, Table D1, read-out: MIC
Procedure: (§4) The bacterial and antibiogramidentification is carried out by the VITEK 2 system (bioMérieux)

[13] = system: SaR3: Meticillin-Resistant Staphylococcus aureus; assay: Antibiogram by the disk diffusion technique; format: cell-based; details: for Diameter: Table E1; for diameter in mm: Table E2
Procedure: (§5) The bacterial and antibiogramidentification is carried out by the VITEK 2 system (bioMérieux) and by the disk diffusion technique

[14] = system: SaR4: Meticillin-Resistant Staphylococcus aureus; assay: Antibiogram by the disk diffusion technique; format: cell-based
Procedure: as §5

[15] = system: SaR1: Meticillin-Resistant Staphylococcus aureus without Associated Resistance; assay: Antibiogram, inhibition diameter (Table D1); format: cell-based
Procedure: as §4

[16] = MIC of the compounds used alone, microdilution in a liquid medium (CLSI); format: cell-based, Staphylococcus aureus; details: Staphylococcus aureus, MRSA; antibiotic alone (second value of cell); SaR4; read-out: MIC
Text: as §1

[17] = system: MRSA strain having a resistance to the aminoglycosides and fluoroquinolones (SaR3); assay: as above; format: cell-based, Staphylococcus aureus; details: Staphylococcus aureus, MRSA; antibiotic alone (second value of cell); SaR3; read-out: MIC
Text: as §1

[18] = system: MRSA strain without associated resistance (SaR1); assay: as above; format: cell-based, Staphylococcus aureus; details: Staphylococcus aureus, MRSA; antibiotic alone (second value of cell); SaR1; read-out: MIC
Text: as §1

[19] = system: PaR3: Pseudomonas aeruginosa; assay: Antibiogram, MIC by the VITEK 2 system; format: cell-based
Procedure: as §4

[20] = system: PaR5: Pseudomonas aeruginosa; assay: Antibiogram by the disk diffusion technique; format: cell-based; details: for diameter in mm: disk diffusion inhibition diameter, strain PaR5
Procedure: as §5

[21] = system: SaR4: Meticillin-Resistant Staphylococcus aureus; assay: Antibiogram, MIC by the VITEK 2 system; format: cell-based; details: Staphylococcus aureus, SaR4, read-out: MIC
Procedure: as §5

[22] = system: PaR2: Pseudomonas aeruginosa; format: cell-based; details: for Diameter: Table G1; for diameter in mm: Table G2
Procedure: as §5

[23] = ATCC25922, antibiotic alone (second value of cell), E. coli ATCC 25922, read-out: Initial MICs
[24] = EcR1, Table A2, read-out: MIC mg/L (diameter in mm)
[25] = EcR1, VITEK 2, Table A1, read-out: MIC
[26] = Pseudomonas aeruginosa, Table H2, read-out: MIC

Structure (SMILES)	MIC [1] [µg/mL]	MIC [2, 23] [mg/L]	MIC [3] [µg/mL]	MIC [4] [µg/mL]	CA-SFM Interpretation [5]	CLSI Interpretation [5]	EUCAST Interpretation [5]	Results [5]	MIC [5, 24] [mg/L]	MIC [5, 25] [mg/L]	Diameter [6] [mm]	Results [6]	CA-SFM Interpretation [8]	CLSI Interpretation [8]	EUCAST Interpretation [8]	Diameter [8] [mm]	Results [8]	diameter in mm [8] [mm]	also measured
CC1(C)S[C@@H]2[C@H](NC(=O)[C@H](N)c3ccc(O)cc3)C(=O)N2[C@H]1C(=O)O [Amoxicillin]	> 256	4	256	> 256	Resistant	Resistant	Resistant	Resistant	≥ 32	≥ 32	6	Resistant	Resistant	Resistant	Resistant	6	Resistant	6	Results ([7]; EcR2, Table B1): Resistant; CA-SFM Interpretation ([7]; EcR2, from MIC, Cc CA-SFM 2011): Resistant; CLSI Interpretation ([7]; EcR2, from MIC, Cc CLSI 2011): Resistant; EUCAST Interpretation ([7]; EcR2, from MIC, Cc EUCAST 2011): Resistant; MIC ([7]; EcR2, VITEK 1, Table B1): ≥ 32 µg/mL; MIC ([7]; EcR2, Table B2, MIC): ≥ 32 µg/mL
CO/N=C(\C(=O)N[C@@H]1C(=O)N2C(C(=O)O)=C(COC(C)=O)CS[C@H]12)c1csc(N)n1 [Cefotaxime]	128	0.06	4	0.06	Susceptible	Susceptible	Susceptible	Susceptible	≤ 1	≤ 1	30	Susceptible	Resistant	Resistant	Intermediate	19	Intermediate	19	Diameter ([9]; EcR2, disk diffusion, Table B1): 24; Results ([9]; EcR2, rows that print a diameter, Table B1): Intermediate; Diameter ([9]; EcR2, Table B2, diameters): 24 mm; CA-SFM Interpretation ([9]; EcR2, from diameter, CA-SFM 2011): Intermediate; CLSI Interpretation ([9]; EcR2, from diameter, CLSI 2011): Intermediate; EUCAST Interpretation ([9]; EcR2, from diameter, EUCAST 2011): Resistant
[H]/N=C(\N/C(=N/[H])NCCCCCCNC(=N)NC(=N)Nc1ccc(Cl)cc1)Nc1ccc(Cl)cc1 [Chlorhexidine]	–	–	–	–	–	–	–	–	–	–	–	–	–	–	–	–	–	–	MIC ([2]; ATCC25922, antiseptic alone, E. coli ATCC 25922, read-out: Initial MICs (mg/L), antiseptic (ATS)): < 1 mg/L; MIC ([10]; ATCC27853, antiseptic alone, P. aeruginosa ATCC 27853, read-out: Initial MICs (mg/L), antiseptic (ATS)): 4 mg/L; MIC ([11]; ATCC29213, antiseptic alone, S. aureus ATCC 29213, read-out: Initial MICs (mg/L), antiseptic (ATS)): < 1 mg/L
C[C@@H](O)[C@H]1C(=O)N2C(C(=O)O)=C(S[C@@H]3CN[C@H](C(=O)Nc4cccc(C(=O)O)c4)C3)[C@H](C)[C@H]12 [Ertapenem]	0.0015	0.015	0.03	0.015	–	–	–	–	–	–	–	–	–	–	–	–	–	–	–
N=C(N)c1ccc(OCCCCCCOc2ccc(C(=N)N)cc2)cc1 [Hexamidine]	–	–	–	–	–	–	–	–	–	–	–	–	–	–	–	–	–	–	MIC ([2]; ATCC25922, read-out: Initial MICs (mg/L), antiseptic (ATS)): 8 mg/L; MIC ([10]; ATCC27853, read-out: Initial MICs (mg/L), antiseptic (ATS)): 32 mg/L; MIC ([11]; ATCC29213, read-out: Initial MICs (mg/L), antiseptic (ATS)): < 1 mg/L
NC[C@H]1O[C@H](O[C@H]2[C@H](O)[C@@H](O[C@H]3O[C@H](CO)[C@@H](O)[C@H](N)[C@H]3O)[C@H](N)C[C@@H]2N)[C@H](O)[C@@H](O)[C@@H]1O [Kanamycin]	–	–	–	–	–	–	–	–	–	–	–	–	–	–	–	–	–	–	MIC mg/L [12]: ≦4 mg/L; MIC [12]: ≤ 4 µg/mL; Diameter [13]: 6 mm; diameter in mm [13]: 6 mm; Diameter ([14]; Table F1): 7; Diameter ([14]; Table F2, diameters): 7 mm; Diameter [15]: 20 mm
C[C@H]1COc2c(N3CCN(C)CC3)c(F)cc3c(=O)c(C(=O)O)cn1c23 [Levofloxacin]	–	–	–	–	–	–	–	–	–	–	–	–	–	–	–	–	–	–	MIC ([11]; ATCC29213, antibiotic alone (second value of cell), S. aureus ATCC 29213, read-out: Initial MICs): 0.125 mg/L; MIC [16]: > 32 µg/mL; MIC [17]: 8 µg/mL; MIC [18]: 0.25 µg/mL
CN(C)c1ccc(O)c2c1C[C@H]1C[C@H]3[C@H](N(C)C)C(O)=C(C(N)=O)C(=O)[C@@]3(O)C(O)=C1C2=O [Minocycline]	–	–	–	–	–	–	–	–	–	–	20	–	–	–	–	21	–	21	MIC mg/L (diameter in mm) ([6]; EcR1, cells that print a diameter, Table A2): 20 mm; MIC [19, 26]: 4 µg/mL (≈ 8.74 µM); MIC ([19]; Table H1): 4 µg/mL (≈ 8.74 µM); MIC mg/L [12]: ≦0.5 mg/L; MIC [12]: ≤ 0.5 µg/mL; Diameter ([20]; PaR5, Table I1): 11 mm; diameter in mm [20]: 11 mm; Diameter [13]: 26 mm; diameter in mm [13]: 26 mm; MIC ([21]; Table F1): ≤ 4 µg/mL; MIC ([21]; Table F2, MIC): ≤ 0.5 µg/mL; Diameter [22]: 6 mm; diameter in mm [22]: 6 mm; Diameter [15]: 27 mm
CCN1CCN(C(=O)N[C@@H](C(=O)N[C@@H]2C(=O)N3[C@@H]2SC(C)(C)[C@@H]3C(=O)O)c2ccccc2)C(=O)C1=O [Piperacillin]	128	2	32	256	Susceptible	Susceptible	Susceptible	Susceptible	≤ 8	≤ 8	17	Intermediate	Resistant	Resistant	Resistant	13	Intermediate	13	CA-SFM Interpretation ([19]; Cc CA-SFM 2011): Resistant; CLSI Interpretation ([19]; Cc CLSI 2011): Resistant; EUCAST Interpretation ([19]; Cc EUCAST 2011): Resistant; MIC [19, 26]: ≥ 128 µg/mL; MIC ([19]; Table H1): ≧128; Results ([19]; Table H1): Resistant; Diameter ([20]; PaR5, Table I1): 33 mm; Results ([20]; PaR5, Table I1, against Dmin-Dmax): Susceptible; diameter in mm [20]: 33 mm; CA-SFM Interpretation ([20]; disk diffusion, PaR5, versus critical diameter CA-SFM 2011): Susceptible; CLSI Interpretation ([20]; disk diffusion, PaR5, versus critical diameter CLSI 2011): Susceptible; EUCAST Interpretation ([20]; disk diffusion, PaR5, versus critical diameter EUCAST 2011, for ** antibiotics the disk load differs and the EUCAST interpretation is not applicable): Susceptible; CA-SFM Interpretation ([22]; Cd CA-SFM 2011): Susceptible; CLSI Interpretation ([22]; Cd CLSI 2011): Susceptible; EUCAST Interpretation ([22]; Cd EUCAST 2011): Susceptible; Diameter [22]: 22 mm; Results ([22]; Table G1, against Dmin-Dmax): Susceptible; diameter in mm [22]: 22 mm
